Here are results for two compounds from patent publication EP0138020B1, “Anti-adhesive prophylactica and medicines containing a secretolytically active benzylamine derivative” (priority 1983, dated 1985).

Counter-ions that a name gives are not always drawn. Some results are limits rather than exact numbers.

In data set [1] the test system is Klebsiella pneumoniae Weingarten 14. In words: In vivo lung infection: bacterial count in lung homogenate. The settings on record: relative to Tylose control = 100; treated 8-10 h before, 15 min before and 4-5 h after infection, preferably i.m. 20-40 mg/kg; lungs preferably 10 h after infection. As to the method:
• a. Die Kultur der Bakterien erfolgt wie oben beschrieben, allerdings ohne radioaktive Markierung. • b. Weibliche Albino-Wistar Ratten oder weibliche SPF-Mäuse (Chbb:NMRI) werden i.p., i.v., i.m., p.o., vorzugsweise i.m. 8-10 Stunden vor, 15 Minuten vor und 4-5 Stunden nach der Infektion mit 2-200 mg, vorzugsweise 20-40 mg Benzylamin pro kg Körpergewicht bzw. Tylose (Kontrolle) behandelt. Die Bakteriensuspension (5 x 10⁸-10⁻⁹Bakterien/ml physiologischer Kochsalzlösung) wird in einer Vernebelungskammer mit 0,35 ml/ Minute über 10 Minuten vernebelt. Alternativ werden 10⁶ Keime in 0,05 ml physiologischer Kochsalzlösung i.n. in den Nasengang unter einer Inhalationsnarkose, z.B. mit Chloroform, appliziert. Jeweils ein Kollektiv von Tieren wird 1-10, vorzugsweise 10 Stunden nach der Infektion seziert, die Lungen steril entnommen und die Keime im Lungenhomogenat quantitativ durch Anzüchtung auf McConkey-Agar ermittelt. Die Bakterienkonzentration wird in Keimzahl/g Lunge bestimmt.

The test system of data set [2] is Klebsiella pneumoniae Weingarten 14 (Adhäsion an menschlichen Lungen-Epithelzellen ATCC, CCL5, L-132). In words: Direct effect in vitro: adhesion of 14C-labelled bacteria to an epithelial cell monolayer. Type of data set: cell-based. The settings on record: L132, 3 h, pH 5, read-out: weniger Keime auf den Epithelzellen im Vergleich zur Kontrolle. From the text:
• a. Der Titer der lebenden Zellen, z.B. von menschlichen Lungen-Epithelzellen wie ATCC, CCL5, L-132, - zu denen nachgewiesenerweise die Verbindungen der obigen allgemeinen Formel I eine sehr hohe Affinität aufweisen, die mit der zum intakten Organ vergleichbar ist - wird mittels Vitalfärbung mit Trypan blue und Auszählung in einer Fuchs-Rosenthal-Zählkammer bestimmt und durch Verdünnung mit Kulturmedium, z.B. Minimum Essential Medium plus 10 % fötales Kälberserum plus 0,1 % Kanamycin, auf 7 x 10⁴ Zellen/ml eingestellt. Je 3 ml dieser Suspension werden in Glasszintillationsfläschchen gefüllt, die durch eine übliche Behandlung für die Anheftung der Epithelzellen auf die Glasoberfläche vorbereitet wurden. Die Inkubation bis zur Ausbildung eines geschlossenen Monolayers erfolgt über 3 Tage bei 37°C und 3 % CO₂. Ein Monolayer entspricht 5 x 10⁶ Zellen pro Szintillationsfläschchen. • b. Die Bakterien, z.B. Klebsiella pneumoniae Weingarten 14, werden in zwei Passagen von je 24 Stunden bei 37° C in Brain Heart Infusion Broth (BHJ) bis zur logarithmischen Wachstumsphase gezüchtet. Während der 2. Passage erfolgt die radioaktive Markierung durch die Zugabe von 1,2-¹⁴C-Azetat zum Nährmedium. Danach wird die Kultur zur Entfernung nichtinkorporierter Radioaktivität zweimal mit PBS (Phosphate buffered saline) gewaschen. […]

Data set [3] in a line: Acute oral toxicity (LD50). The settings on record: mouse, in vivo, Maus, p.o., read-out: LD₅₀. The source says:
Die Verbindungen der obigen allgemeinen Formel I und deren physiologisch verträgliche Säureadditionssalze sind untoxisch und somit gut verträglich. So weist beispielsweise an der Maus • N-Methyl-N-(2-amino-3,5-dibrom-benzyl)-cyclohexylaminhydrochlorid eine LD₅₀ von >10 g/kg p.o., • N-(2-Amino-3,5-dibrom-benzyl)-trans-4-hydroxy-cyclohexylaminhydrochlorid eine von 2,72 g/kg p.o. und • die übrigen Verbindungen eine von >1 g/kg p.o. auf.

Data set [4] relates to Klebsiella pneumoniae Weingarten 14 (Adhäsion an menschlichen Lungen-Epithelzellen ATCC, CCL5, L-132). In words: Indirect effect ex vivo: bacterial adhesion to epithelial cells after incubation with lung lavage fractions from treated rats. The format is cell-based. The settings on record: rats 25 mg/kg p.o. over 5 days, vs Tylose control animals. The source says: • a. Der Titer der lebenden Zellen, z.B. von menschlichen Lungen-Epithelzellen wie ATCC, CCL5, L-132, - zu denen nachgewiesenerweise die Verbindungen der obigen allgemeinen Formel I eine sehr hohe Affinität aufweisen, die mit der zum intakten Organ vergleichbar ist - wird mittels Vitalfärbung mit Trypan blue und Auszählung in einer Fuchs-Rosenthal-Zählkammer bestimmt und durch Verdünnung mit Kulturmedium, z.B. Minimum Essential Medium plus 10 % fötales Kälberserum plus 0,1 % Kanamycin, auf 7 x 10⁴ Zellen/ml eingestellt. Je 3 ml dieser Suspension werden in Glasszintillationsfläschchen gefüllt, die durch eine übliche Behandlung für die Anheftung der Epithelzellen auf die Glasoberfläche vorbereitet wurden. Die Inkubation bis zur Ausbildung eines geschlossenen Monolayers erfolgt über 3 Tage bei 37°C und 3 % CO₂. Ein Monolayer entspricht 5 x 10⁶ Zellen pro Szintillationsfläschchen. • b. Die Bakterien, z.B. Klebsiella pneumoniae Weingarten 14, werden in zwei Passagen von je 24 Stunden bei 37° C in Brain Heart Infusion Broth (BHJ) bis zur logarithmischen Wachstumsphase gezüchtet. Während der 2. Passage erfolgt die radioaktive Markierung durch die Zugabe von 1,2-¹⁴C-Azetat zum Nährmedium. Danach wird die Kultur zur Entfernung nichtinkorporierter Radioaktivität zweimal mit PBS (Phosphate buffered saline) gewaschen. Mit PBS pH 5,5 wird die Kultur im Photometer auf eine Transmission von 35 % eingestellt, was durch Ermittlung der Lebendkeimzahl einem Titer von 5 x 10⁸ Bakterien/ml entspricht. • c. Die Bakterien-Kultur wird abzentrifugiert, PBS abgenommen und durch ein gleiches Volumen Benzylamin-Lösung in PBS pH 5,5 ersetzt. Für den Kontrollwert wird statt der Benzylamin-Lösung PBS pH 5,5 verwendet. Das Nährmedium der Zellen wird abgenommen, der Monolayer (= 5 x 10⁶ Zellen) wird zweimal mit PBS pH 5,5 gespült und mit 1 ml Bakterien-Benzylamin-Lösung (= 5 x 10⁸ Bakterien) überschichtet. Die Inkubation erfolgt 3 Stunden bei 37° C. Danach wird die Bakterien-Benzylamin-Lösung abgenommen und der Monolayer zur Entfernung nicht-adhärenter Bakterien zweimal mit PBS pH 5,5 gespült. Nach Zugabe von Instagel wird die Radioaktivität der gebundenen Bakterien im Szintillationszähler gemessen. • d. Ergebnis: Mit der Verbindung A (50 |g/ml) wurden im Vergleich zur Kontrolle 15 % weniger Keime auf den Epithelzellen nachgewiesen, mit der Verbindung B (50 |g/ml) 20 %.
• a. Die Kultur der Epithelzellen erfolgt wie oben beschrieben. • b. Die Kultur der Bakterien erfolgt wie oben beschrieben. • c. Männliche SPF-Ratten (Chbb:THOM) werden über 5 Tage p.o. mit 25 mg Benzylamin pro kg Körpergewicht bzw. mit Tylose (Kontrolle) behandelt. Durch Bronchoalveolar-Lavage mit isotoner Harnstofflösung wird das Lungenwaschwasser gewonnen und gepoolt. 100 ml davon werden mittels präparativer Isoelektrofokussierung in 30 proteinhaltige Gelfraktionen aufgetrennt. Nach Bestimmung des isoelektrischen Punktes der einzelnen Fraktionen mit einer Oberflächen-Elektrode werden die Proteine mit 3 ml PBS pH 5,5 pro Fraktion vom Gel eluiert. Die 30 Fraktionen werden auf pH 5,5 eingestellt. • d. Die Bakterienkultur wird abzentrifugiert, PBS abgenommen und durch ein gleiches Volumen Lungenwaschwasserfraktion ersetzt. Für den Kontrollwert wird statt der Lungenwaschwasserfraktionen PBS pH 5,5 und isotone Harnstofflösung verwendet. Nach einer Inkubation von 2 Stunden bei 37° C wird die Bakterienkultur erneut abzentrifugiert, Lungenwaschwasserfraktionen bzw. PBS bzw. Harnstoff abgenommen und durch ein gleiches Volumen PBS pH 5,5 ersetzt. Das Nährmedium der Zellen wird abgenommen, der Monolayer (= 5 x 10⁶ Zellen) wird zweimal mit PBS pH 5,5 gespült und mit 1 ml Bakteriensuspension (= 5 x 10⁸ Bakterien) überschichtet. Die Inkubation erfolgt 2 Stunden bei 37° C Danach wird die Bakteriensuspension abgenommen und der Monolayer zur Entfernung nicht-adhärenter Bakterien zweimal mit PBS pH 5,5 gespült. Nach Zugabe von Instagel wird die Radioaktivität der gebundenen Bakterien im Szintillationszähler gemessen. • e. […]

Consider `CN(Cc1cc(Br)cc(Br)c1N)C1CCCCC1` [Verbindung A, N-Methyl-N-(2-amino-3,5-dibrom-benzyl)-cyclohexylaminhydrochlorid], for which the “% Keimzahl/g Lunge” value in data set [1] is recorded as 49%. Further, in data set [2], the inhibition at 50 µg/mL amounted to 15%. Further, the LD50 in data set [3] was more than 10000 mg/kg.
With `Nc1c(Br)cc(Br)cc1CN[C@H]1CC[C@H](O)CC1` [Verbindung B, N-(2-Amino-3,5-dibrom-benzyl)-trans-4-hydroxy-cyclohexylamin-hydrochlorid], the “% Keimzahl/g Lunge” value in data set [1] stood at 31%. The “% Hemmung der Adhäsivität” value in data set [4] (Isoelektrischer Punkt der Lungenwaschwasserfraktion 4,0) amounted to 73%; in data set [4] (Isoelektrischer Punkt der Lungenwaschwasserfraktion 4,4), 65%; in data set [4] (Isoelektrischer Punkt der Lungenwaschwasserfraktion 4,9) it was 65%; in data set [4] (Isoelektrischer Punkt der Lungenwaschwasserfraktion 5,2), 61%; in data set [4] (Isoelektrischer Punkt der Lungenwaschwasserfraktion 5,8) it was 39%; in data set [4] (Isoelektrischer Punkt der Lungenwaschwasserfraktion 6,7), 67%. The “% Hemmung der Adhäsivität” value in data set [4] (Isoelektrischer Punkt der Lungenwaschwasserfraktion 7,6) was determined as 79%; in data set [4] (Isoelektrischer Punkt der Lungenwaschwasserfraktion 8,6), 72%. Further, in data set [2], the inhibition at 50 µg/mL was 20%. The LD50 in data set [3] is 2720 mg/kg.
